The source of these data is US20100010219A1, “METHOD FOR PRODUCING PYRROLIDINE COMPOUND” (JAPAN TOBACCO INC., priority 2006, published 2010).

The assay has as its target T1, human HSD-1 (recombinant HSD-1) (Homo sapiens, UniProt P28845).
T1 construct: made in house
Kind of assay: HSD-1 activity inhibitory action in vitro (SPA, conversion of cortisone to cortisol). Type of assay: biochemical.

Where [1] appears, read: recombinant human HSD-1 expressed using baculovirus system, 10 nM 3H cortisone, 500 μM NADPH, room temperature 90 to 120 min, read-out: hHSD1 (IC50 (nM)).

Counter-ions that a name gives are not always drawn. Like-named read-outs stand apart in the source and are kept apart here.

T1 sequence (P28845 whole entry): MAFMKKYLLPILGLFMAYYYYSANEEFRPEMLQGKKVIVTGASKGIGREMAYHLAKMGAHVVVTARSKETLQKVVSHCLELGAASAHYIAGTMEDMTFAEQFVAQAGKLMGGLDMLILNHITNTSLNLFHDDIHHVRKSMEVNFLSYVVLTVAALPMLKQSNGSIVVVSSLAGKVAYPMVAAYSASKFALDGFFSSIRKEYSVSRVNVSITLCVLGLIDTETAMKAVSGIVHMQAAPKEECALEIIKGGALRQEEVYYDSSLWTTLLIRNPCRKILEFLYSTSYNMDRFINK

Take `O=C(c1cnn(C2CCN(C(=O)N3CCC3)CC2)c1C1CC1)N1CC[C@@H](c2ccccc2C(F)(F)F)C1` [Example 15, 1-{1-[1-(azetidine-1-carbonyl)piperidin-4-yl]-5-cyclopropyl-1H-pyrazole-4-carbonyl}-[(S)-3-(2-trifluoromethylphenyl)]pyrrolidine]: the 50% inhibitory concentration (IC50) under setting [1] was < 30 nM.
Take `O=C1CCN(C(=O)N2CCC(n3ncc(C(=O)N4CC[C@@H](c5ccccc5C(F)(F)F)C4)c3C3CC3)CC2)CC1` [Example 44, 1-{5-cyclopropyl-1-[1-(4-oxopiperidine-1-carbonyl)piperidin-4-yl]-1H-pyrazole-4-carbonyl}-[(S)-3-(2-trifluoromethylphenyl)]pyrrolidine]: the IC50 is < 30 nM.
On to `O=C(Nc1ccc(Cl)nc1Cl)N1CCC(n2ncc(C(=O)N3CCC(c4ccccc4C(F)(F)F)C3)c2C2CC2)CC1` (stereo not shown) [Example 150, 1-{5-cyclopropyl-1-[1-(2,6-dichloropyridin-3-ylcarbamoyl)piperidin-4-yl]-1H-pyrazole-4-carbonyl}-3-(2-trifluoromethylphenyl)pyrrolidine], for which, under setting [1], the concentration for half-maximal inhibition (IC50) is < 30 nM.
On the same count and under the same terms, the result for `O=C(Nc1ccccc1CO)N1CCC(n2ncc(C(=O)N3CC[C@@H](c4ccccc4C(F)(F)F)C3)c2C2CC2)CC1` [Example 6, 1-{5-cyclopropyl-1-[1-(2-hydroxymethylphenylcarbamoyl)piperidin-4-yl]-1H-pyrazole-4-carbonyl}-[(S)-3-(2-trifluoromethylphenyl)]pyrrolidine] reads < 30 nM; that for `O=C(O)c1ccc(N2CCC(n3ncc(C(=O)N4CCC(c5ccccc5C(F)(F)F)C4)c3C3CC3)CC2)s1` (stereo not shown) [Example 115, 5-(4-{5-cyclopropyl-4-[3-(2-trifluoromethylphenyl)pyrrolidine-1-carbonyl]pyrazol-1-yl}piperidin-1-yl)thiophene-2-carboxylic acid], < 30 nM; that for `O=C(c1cnn(C2CCN(C(=O)N3CCC(F)(F)C3)CC2)c1C1CC1)N1CC[C@@H](c2ccccc2C(F)(F)F)C1` [Example 19, 1-{5-cyclopropyl-1-[1-(3,3-difluoropyrrolidine-1-carbonyl)piperidin-4-yl]-1H-pyrazole-4-carbonyl}-[(S)-3-(2-trifluoromethylphenyl)]pyrrolidine], < 30 nM.
The same measure, in the same setting: the result for `O=C(c1cnn([C@H]2CC[C@H](c3nnn[nH]3)CC2)c1C1CC1)N1CC[C@@H](c2ccccc2C(F)(F)F)C1` [Example 132, 1-{5-cyclopropyl-1-[trans-4-(1H-tetrazol-5-yl)cyclohexyl]-1H-pyrazole-4-carbonyl}-[(S)-3-(2-trifluoromethylphenyl)]pyrrolidine] reads < 30 nM; that for `NCCC(=O)N1CCC(n2ncc(C(=O)N3CC[C@@H](c4ccccc4C(F)(F)F)C3)c2C2CC2)CC1` [Example 83, 1-{1-[1-(3-aminopropionyl)piperidin-4-yl]-5-cyclopropyl-1H-pyrazole-4-carbonyl}-[(S)-3-(2-trifluoromethylphenyl)]pyrrolidine hydrochloride], < 30 nM.
As for `O=C(c1cnn(C2CCN(c3n[nH]c(C(F)(F)F)n3)CC2)c1C1CC1)N1CC[C@@H](c2ccccc2C(F)(F)F)C1` [Example 120, 1-{5-cyclopropyl-1-[1-(5-trifluoromethyl-4H-[1,2,4]triazol-3-yl)piperidin-4-yl]-1H-pyrazole-4-carbonyl}-[(S)-3-(2-trifluoromethylphenyl)]pyrrolidine hydrochloride], under setting [1], the IC50 was < 30 nM.
The same measure, in the same setting: the result for `CC(=O)N1CCC(NC(=O)N2CCC(n3ncc(C(=O)N4CC[C@@H](c5ccccc5C(F)(F)F)C4)c3C3CC3)CC2)CC1` [Example 43, 1-{1-[1-(1-acetylpiperidin-4-yl-carbamoyl)piperidin-4-yl]-5-cyclopropyl-1H-pyrazole-4-carbonyl}-[(S)-3-(2-trifluoromethylphenyl)]pyrrolidine] reads < 30 nM; that for `O=C(c1cnn(C2CCN(C(=O)N3CCC(CO)CC3)CC2)c1C1CC1)N1CC[C@@H](c2ccccc2C(F)(F)F)C1` [Example 24, 1-{5-cyclopropyl-1-[1-(4-hydroxymethylpiperidine-1-carbonyl)piperidin-4-yl]-1H-pyrazole-4-carbonyl}-[(S)-3-(2-trifluoromethylphenyl)]pyrrolidine], < 30 nM; that for `O=C(N[C@H](CO)c1ccccc1)N1CCC(n2ncc(C(=O)N3CC[C@@H](c4ccccc4C(F)(F)F)C3)c2C2CC2)CC1` [Example 51, 1-(5-cyclopropyl-1-{1-[(S)-2-hydroxy-1-phenylethylcarbamoyl]piperidin-4-yl}-1H-pyrazole-4-carbonyl)-[(S)-3-(2-trifluoromethylphenyl)]pyrrolidine], < 30 nM.
Regarding `CC1(c2c(C(=O)N3CCC(c4ccccc4CO)C3)cnn2C2CCN(c3ncccn3)CC2)CC1` (stereo not shown) [Example 180, 3-(2-hydroxymethylphenyl)-1-{5-(1-methylcyclopropyl)-1-[1-(pyrimidin-2-yl)piperidin-4-yl]-1H-pyrazole-4-carbonyl}pyrrolidine hydrochloride], the 50% inhibitory concentration (IC50) under setting [1] is < 30 nM.
For the compound `CNCC(=O)N1CCC(n2ncc(C(=O)N3CC[C@@H](c4ccccc4C(F)(F)F)C3)c2C2CC2)CC1` [Example 85, 1-{5-cyclopropyl-1-[1-(2-methylaminoacetyl)piperidin-4-yl]-1H-pyrazole-4-carbonyl}-[(S)-3-(2-trifluoromethylphenyl)]pyrrolidine hydrochloride], the IC50 under setting [1] is < 30 nM.
On to `O=C(O)C1CCN(C(=O)N2CCC(n3ncc(C(=O)N4CC[C@@H](c5ccccc5C(F)(F)F)C4)c3C3CC3)CC2)CC1` [Example 25, 1-{1-[1-(4-carboxypiperidine-1-carbonyl)piperidin-4-yl]-5-cyclopropyl-1H-pyrazole-4-carbonyl}-[(S)-3-(2-trifluoromethylphenyl)]pyrrolidine], for which, under setting [1], the concentration for half-maximal inhibition (IC50) was < 30 nM.
Same read-out and setting: the result for `CNC(=O)CN1CCC(n2ncc(C(=O)N3CC[C@@H](c4ccccc4C(F)(F)F)C3)c2C2CC2)CC1` [Example 95, 1-[5-cyclopropyl-1-(1-methylcarbamoylmethylpiperidin-4-yl)-1H-pyrazole-4-carbonyl]-[(S)-3-(2-trifluoromethylphenyl)]pyrrolidine hydrochloride] reads < 30 nM.
Take `O=C(Nc1ccccc1F)N1CCC(n2ncc(C(=O)N3CCC(c4ccccc4OC(F)(F)F)C3)c2C2CC2)CC1` (stereo not shown) [Example 140, 1-{5-cyclopropyl-1-[1-(2-fluorophenylcarbamoyl)piperidin-4-yl]-1H-pyrazole-4-carbonyl}-3-(2-trifluoromethoxyphenyl)pyrrolidine]: the IC50 under setting [1] is < 30 nM.
As for `O=C(Nc1ccc(F)cc1F)N1CCC(n2ncc(C(=O)N3CCC(c4ccccc4Cl)C3)c2C2CC2)CC1` (stereo not shown) [Example 136, 3-(2-chlorophenyl)-1-{5-cyclopropyl-1-[1-(2,4-difluorophenylcarbamoyl)piperidin-4-yl]-1H-pyrazole-4-carbonyl}pyrrolidine], the IC50 under setting [1] was < 30 nM.
Consider `CC(=O)N1CCC(OC(=O)N2CCC(n3ncc(C(=O)N4CC[C@@H](c5ccccc5C(F)(F)F)C4)c3C3CC3)CC2)CC1` [Example 63, 1-{1-[1-(1-acetylpiperidin-4-yl-oxycarbonyl)piperidin-4-yl]-5-cyclopropyl-1H-pyrazole-4-carbonyl}-[(S)-3-(2-trifluoromethylphenyl)]pyrrolidine], for which the IC50 under setting [1] is < 30 nM.
